# Reference: ChEMBL document CHEMBL1212833, “Protein lysine methyltransferase G9a inhibitors: design, synthesis, and structure activity relationships of 2,4-diamino-7-aminoalkoxy-quinazolines” (J Med Chem, 2010)
# Experiments:
# [1] = molecular target: T1, Histone-lysine N-methyltransferase EHMT2 (Homo sapiens, UniProt Q96KQ7); assay: Inhibition of methyl transferase activity of G9a assessed as inhibition of H3K9 methylation by chemiluminescence based oxygen tunneling assay
# T1 sequence (Q96KQ7 whole entry): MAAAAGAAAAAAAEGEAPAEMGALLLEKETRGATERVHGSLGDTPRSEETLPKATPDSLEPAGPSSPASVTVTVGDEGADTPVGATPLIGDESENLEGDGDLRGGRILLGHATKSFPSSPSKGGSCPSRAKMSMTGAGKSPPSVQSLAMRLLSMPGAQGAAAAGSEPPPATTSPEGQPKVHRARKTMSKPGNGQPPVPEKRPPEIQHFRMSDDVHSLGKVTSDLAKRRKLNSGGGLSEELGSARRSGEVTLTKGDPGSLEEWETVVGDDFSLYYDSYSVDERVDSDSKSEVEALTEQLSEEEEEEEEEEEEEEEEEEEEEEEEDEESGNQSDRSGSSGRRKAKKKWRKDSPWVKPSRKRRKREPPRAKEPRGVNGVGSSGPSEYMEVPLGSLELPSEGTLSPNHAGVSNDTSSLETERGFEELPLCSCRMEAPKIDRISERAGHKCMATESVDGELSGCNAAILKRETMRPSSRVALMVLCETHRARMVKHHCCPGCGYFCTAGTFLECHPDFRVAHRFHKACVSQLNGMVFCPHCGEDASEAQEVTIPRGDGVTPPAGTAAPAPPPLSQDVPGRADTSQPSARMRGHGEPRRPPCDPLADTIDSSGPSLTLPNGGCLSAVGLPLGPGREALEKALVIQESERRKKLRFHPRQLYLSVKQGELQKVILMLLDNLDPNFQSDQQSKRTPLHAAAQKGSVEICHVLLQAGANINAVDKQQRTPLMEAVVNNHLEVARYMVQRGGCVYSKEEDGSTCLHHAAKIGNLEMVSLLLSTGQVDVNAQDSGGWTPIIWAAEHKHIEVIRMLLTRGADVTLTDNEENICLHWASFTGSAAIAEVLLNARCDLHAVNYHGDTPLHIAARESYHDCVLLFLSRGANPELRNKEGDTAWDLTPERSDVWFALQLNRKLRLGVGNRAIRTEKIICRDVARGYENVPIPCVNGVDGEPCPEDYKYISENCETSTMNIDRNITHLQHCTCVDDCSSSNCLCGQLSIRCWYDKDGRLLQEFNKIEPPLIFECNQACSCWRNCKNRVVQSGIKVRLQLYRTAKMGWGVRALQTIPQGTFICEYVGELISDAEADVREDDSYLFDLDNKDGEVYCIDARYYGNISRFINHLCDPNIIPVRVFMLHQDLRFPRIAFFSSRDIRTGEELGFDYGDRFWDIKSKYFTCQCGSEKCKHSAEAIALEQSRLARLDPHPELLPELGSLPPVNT
# [2] = molecular target: T1, Histone-lysine N-methyltransferase EHMT2; assay: Activity at methyl transferase activity G9a by enzyme coupled S-adenocylehomocystein detection assay
# [3] = molecular target: T2, Histone-lysine N-methyltransferase SETD7 (Homo sapiens, UniProt Q8WTS6); assay: Activity at methyl transferase activity SET7/9 by enzyme coupled S-adenocylehomocystein detection assay
# T2 sequence (Q8WTS6 whole entry): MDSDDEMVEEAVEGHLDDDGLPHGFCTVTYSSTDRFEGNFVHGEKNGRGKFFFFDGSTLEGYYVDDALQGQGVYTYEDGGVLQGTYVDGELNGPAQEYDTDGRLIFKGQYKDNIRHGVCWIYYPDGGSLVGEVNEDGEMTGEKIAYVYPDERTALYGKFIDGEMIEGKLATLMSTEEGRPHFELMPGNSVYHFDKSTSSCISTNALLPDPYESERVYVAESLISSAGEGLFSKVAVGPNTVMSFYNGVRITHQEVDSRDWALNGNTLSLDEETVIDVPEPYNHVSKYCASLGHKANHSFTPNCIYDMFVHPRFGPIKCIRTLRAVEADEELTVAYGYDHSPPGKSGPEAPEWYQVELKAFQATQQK
# [4] = molecular target: Protein arginine N-methyltransferase 3 (Homo sapiens, UniProt O60678); assay: Activity at methyl transferase activity PRMT3 by enzyme coupled S-adenocylehomocystein detection assay
# Protein arginine N-methyltransferase 3, sequence (O60678 whole entry): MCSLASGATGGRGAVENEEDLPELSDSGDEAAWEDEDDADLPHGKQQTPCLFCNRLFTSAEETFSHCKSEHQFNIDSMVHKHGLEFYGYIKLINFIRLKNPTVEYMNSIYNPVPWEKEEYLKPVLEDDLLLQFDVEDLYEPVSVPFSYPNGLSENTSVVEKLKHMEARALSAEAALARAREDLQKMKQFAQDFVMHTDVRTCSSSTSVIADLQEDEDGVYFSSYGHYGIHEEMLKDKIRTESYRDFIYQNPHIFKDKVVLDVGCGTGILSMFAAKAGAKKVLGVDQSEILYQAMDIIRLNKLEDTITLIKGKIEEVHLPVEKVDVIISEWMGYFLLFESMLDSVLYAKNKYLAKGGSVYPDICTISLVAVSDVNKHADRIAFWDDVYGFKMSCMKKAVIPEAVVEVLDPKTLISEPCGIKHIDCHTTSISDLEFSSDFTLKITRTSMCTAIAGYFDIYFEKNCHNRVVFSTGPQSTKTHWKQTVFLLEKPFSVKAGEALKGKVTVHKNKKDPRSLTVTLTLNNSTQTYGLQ
# [5] = molecular target: T3, Histone-lysine N-methyltransferase EHMT1 (Homo sapiens, UniProt Q9H9B1); assay: Activity at methyl transferase activity GLP by enzyme coupled S-adenocylehomocystein detection assay
# T3 sequence (Q9H9B1 whole entry): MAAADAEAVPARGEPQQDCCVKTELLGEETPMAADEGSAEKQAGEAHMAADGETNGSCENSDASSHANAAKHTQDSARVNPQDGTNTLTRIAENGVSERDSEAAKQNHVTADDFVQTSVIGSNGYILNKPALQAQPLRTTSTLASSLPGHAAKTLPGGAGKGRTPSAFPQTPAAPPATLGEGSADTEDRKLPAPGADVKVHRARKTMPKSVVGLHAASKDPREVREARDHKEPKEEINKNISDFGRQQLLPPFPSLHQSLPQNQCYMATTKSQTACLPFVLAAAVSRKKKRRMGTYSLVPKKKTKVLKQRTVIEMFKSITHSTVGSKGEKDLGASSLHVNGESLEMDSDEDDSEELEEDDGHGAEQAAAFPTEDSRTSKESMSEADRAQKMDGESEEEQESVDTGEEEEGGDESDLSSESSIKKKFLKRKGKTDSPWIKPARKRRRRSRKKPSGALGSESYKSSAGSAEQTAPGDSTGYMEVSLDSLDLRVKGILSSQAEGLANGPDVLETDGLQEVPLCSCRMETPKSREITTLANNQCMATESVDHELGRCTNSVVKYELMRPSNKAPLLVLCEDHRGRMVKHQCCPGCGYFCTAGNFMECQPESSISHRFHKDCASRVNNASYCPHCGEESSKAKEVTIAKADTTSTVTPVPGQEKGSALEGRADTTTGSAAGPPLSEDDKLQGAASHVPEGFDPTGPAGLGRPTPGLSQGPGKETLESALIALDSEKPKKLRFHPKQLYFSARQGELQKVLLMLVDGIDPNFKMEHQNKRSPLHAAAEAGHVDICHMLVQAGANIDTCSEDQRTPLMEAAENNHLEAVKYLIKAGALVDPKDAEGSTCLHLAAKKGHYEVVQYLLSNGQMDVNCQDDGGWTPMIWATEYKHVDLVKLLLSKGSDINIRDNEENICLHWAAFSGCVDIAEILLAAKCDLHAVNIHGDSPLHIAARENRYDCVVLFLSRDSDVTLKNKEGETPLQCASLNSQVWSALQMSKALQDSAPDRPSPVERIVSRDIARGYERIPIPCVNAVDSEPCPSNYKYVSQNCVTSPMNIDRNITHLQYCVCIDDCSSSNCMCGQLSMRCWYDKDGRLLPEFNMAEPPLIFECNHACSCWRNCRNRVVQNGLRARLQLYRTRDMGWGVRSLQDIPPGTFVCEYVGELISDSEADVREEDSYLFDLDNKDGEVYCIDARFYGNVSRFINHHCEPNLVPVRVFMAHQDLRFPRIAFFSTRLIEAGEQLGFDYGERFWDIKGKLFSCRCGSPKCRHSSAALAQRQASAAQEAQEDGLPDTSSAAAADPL
# [6] = Activity at methyl transferase activity JMJD2E by formaldehyde dehydrogenase-coupled assay
# [7] = molecular target: T4, N-lysine methyltransferase KMT5A (Homo sapiens, UniProt Q9NQR1); assay: Activity at methyl transferase activity SET8/preSet7 by enzyme coupled S-adenocylehomocystein detection assay
# T4 sequence (Q9NQR1 whole entry): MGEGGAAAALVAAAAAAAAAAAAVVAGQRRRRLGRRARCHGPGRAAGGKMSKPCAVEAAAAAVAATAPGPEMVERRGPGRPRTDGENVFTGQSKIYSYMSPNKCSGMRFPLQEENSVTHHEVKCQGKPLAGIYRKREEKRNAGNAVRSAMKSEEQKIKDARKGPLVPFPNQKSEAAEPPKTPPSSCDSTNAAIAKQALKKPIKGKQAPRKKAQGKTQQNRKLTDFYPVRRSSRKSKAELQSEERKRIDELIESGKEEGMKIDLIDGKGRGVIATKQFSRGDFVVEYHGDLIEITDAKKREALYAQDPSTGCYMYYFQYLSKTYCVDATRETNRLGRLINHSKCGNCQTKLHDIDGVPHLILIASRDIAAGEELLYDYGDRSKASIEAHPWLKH
# [8] = molecular target: T3, Histone-lysine N-methyltransferase EHMT1; assay: Activity at methyl transferase activity GLP by chemiluminescence based oxygen tunneling assay
IC50 [1] [µM],IC50 [2] [µM],Compound,also measured
0.11,0.14,COc1cc2c(NC3CCN(C)CC3)nc(N3CCCN(C)CC3)nc2cc1OCCCCN(C)C,
,0.095,COc1cc2c(NC3CCN(C)CC3)nc(N3CCCN(C)CC3)nc2cc1OCCCCCN(C)C,
,0.12,CNCCCOc1cc2nc(N3CCCN(C)CC3)nc(NC3CCN(C)CC3)c2cc1OC,
,0.052,CCN(CC)CCCOc1cc2nc(N3CCCN(C)CC3)nc(NC3CCN(C)CC3)c2cc1OC,
,0.051,CCCN(C)CCCOc1cc2nc(N3CCCN(C)CC3)nc(NC3CCN(C)CC3)c2cc1OC,
> 10,,COCCCCOc1cc2nc(N3CCCN(C)CC3)nc(NC3CCN(C)CC3)c2cc1OC,
0.11,0.235,COc1cc2c(NC3CCN(C)CC3)nc(N3CCCN(C)CC3)nc2cc1OCCCCCN,
> 10,,COc1cc2c(NC3CCN(C)CC3)nc(N3CCCN(C)CC3)nc2cc1OCCCCC(N)=O,
0.006,,COc1cc2c(NC3CCN(C)CC3)nc(N3CCCN(C)CC3)nc2cc1OCCOCCN(C)C,IC50 [3]: > 40 µM; IC50 [4]: > 40 µM; IC50 [5]: 0.015 µM; IC50 [6]: > 57 µM; IC50 [7]: > 40 µM; IC50 [8]: 0.023 µM
0.173,0.345,COc1cc2c(NC3CCN(C)CC3)nc(N3CCCN(C)CC3)nc2cc1OCCN(C)CCN(C)C,

# Continued, molecule first:
Compound,IC50 [1] [µM],IC50 [2] [µM],also measured
CNc1nc(N2CCCN(C)CC2)nc2cc(OC)c(OC)cc12,> 10,,
COc1cc2c(NC3CCN(C)CC3)nc(N3CCCN(C)CC3)nc2cc1OCCCN1CCOCC1,0.78,0.88,
COc1cc2c(NC3CCN(C)CC3)nc(N3CCCN(C)CC3)nc2cc1OCCCCNC(=O)OC(C)(C)C,> 10,,
COc1cc2c(NC3CCN(C)CC3)nc(N3CCCN(C)CC3)nc2cc1OCCOCCN1CCCC1,0.11,0.057,
COc1cc2c(NC3CCN(C)CC3)nc(N3CCCN(C)CC3)nc2cc1OCC1CCCNC1 (centres undefined),5.1,1.5,
COc1cc2nc(N3CCCN(C)CC3)nc(N(C)C3CCN(C)CC3)c2cc1OC,> 10,,
COc1cc2nc(N3CCCN(C)CC3)nc(OC3CCN(C)CC3)c2cc1OC,> 10,,
COc1cc2nc(N3CCCN(C)CC3)nc(NC3CCN(C)C3)c2cc1OC (centres undefined),,0.91,
COc1cc2c(NC3CCN(C)CC3)nc(N3CCCN(C)CC3)nc2cc1OCCCN(C)C,,,IC50 [3]: > 40 µM; IC50 [4]: > 40 µM; IC50 [6]: > 57 µM; IC50 [7]: > 40 µM
